We go through 22 compounds from patent US20260184692A1, “HETEROCYCLIC COMPOUNDS, PREPARATION METHODS AND USES THEREOF” (InventisBio Co., Ltd., priority 2022, published 2026).

The subject of one data set is OVCAR3 Cells. The experiment in a line: OVCAR3 Cell Viability Assay (CellTiter-Glo). It counts as cell-based. The following applies: Homo sapiens, OVCAR-3, 144 h, 6 days incubation, read-out: OVCAR3 CTG IC50. How it is done:
(§1) OVCAR3 Cells (ATCC, Cat #HTB-161) were seeded at a density of 2000 cells/well in a 96-well clear bottom plate (Greiner, Cat #655098) in 100 μL of complete media (RPMI1640+20% FBS+0.01 mg/mL human insulin). One hundred microliter of complete media was added into the blank well (column 1) for low control. Cells were allowed to adhere to the plate overnight in the incubator at 37° C., 5% CO2. On the following day, 0.5 μL of serially-diluted compounds were added to the cells (columns 2-10) and incubated for 6 days at 37 C, 5% CO2 (final 0.5% DMSO concentration); 0.5 μL of DMSO solution was added into the wells (column 11) for high control. Cell viability was detected according to the CellTiter-Glo Luminescent Cell Viability Assay Kit (Promega, Cat #G7573). Luminescence was recorded on the Tecan Spark plate reader. Inhibition rate (IR) of the tested compounds was determined by the following formula: IR (%)=(1−(RLUcompound−RLUlow control)/(RLUhigh control−RLUlow control))×100%. The IC50 value was calculated using the non-linear regression equation: Y=Bottom+(Top−Bottom)/(1+10^((Log IC50−X)×HillSlope)), where X is Log of compound concentration, Y is percent inhibition (IR (%)), Top and Bottom are plateaus in same units as Y.
A general note: Cellular ATP, detected with luciferase, serves as a proxy for viable cell number.

Data set [1] can be described thus: Human Plasma Protein Binding Assay (dialysis). The following applies: 1 μM compound, dialysis 6 hr at 37 °C. The format is in vitro ADME. How it is done: The plasma protein binding of compounds in human plasma was determined using a dialysis method. The dialysis membrane strips were prepared by soaking them in ultra-pure water for about 1 hr at room temperature, followed by separation and soaking in ethanol:water (20:80 v:v) for about 20 min, and a final rinse with ultra-pure water. Prior to use, the membranes were rinsed and soaked for another 20 min in ultra-pure water.
The blank plasma samples were thawed, centrifuged and verified its pH values. Only the plasma with pH between 7.0-8.0 was used in the experiment. The final concentration of compound in the spiked plasma is 1 μM, with final DMSO<=1%. All samples were prepared in triplicates. The time zero (T0) samples was used for determining the recovery of the compound of interest after dialysis. It was prepared in the same way as other dialysis samples except it was stored at 2-8° C. before LC-MS/MS analysis.
The other spiked plasma samples were loaded onto the dialysis device and incubated at and 37±1° C. with 5% CO2 for 6 hr. At the end of the dialysis, aliquots of samples from the plasma and buffer sides of the dialysis device were taken and processed for LC-MS/MS analysis.
The % Unbound, % Bound, and % Recovery of the compounds were calculated from the peak area ratios of the analyte and internal standard in the plasma and buffer samples as shown in the following equations:
[formula] [formula] [formula] • where [F] is the peak area ratio of analyte/internal standard on the buffer (receiver) side of the membrane; [T] is the peak area ratio of analyte/internal standard on the plasma (donor) side of the membrane; [T0] is the peak area ratio of analyte/internal standard in the plasma sample at time zero.

Data set [2] is described as follows: Human Microsomal Clearance Assay. The format is in vitro ADME. Conditions: pH 7.4, human liver microsomes 0.5 mg/mL, 1 μM compound, 2 mM NADPH; for CLint scaled at 1 μM: in vitro intrinsic clearance. The procedure: This study aimed to assess the metabolic stability of a compound in human liver microsomes using a microsomal clearance assay.
A mixture containing 100 mM potassium phosphate, pH 7.4, 0.5 mg/mL liver microsomes, 2 mM NADPH, and 1 μM compound were prepared and added to 96-well plate. The plates were then incubated at 37° C. for different time points (0, 5, 15, 30, 45 minutes) and the reaction was stopped with acetonitrile solution containing an internal standard. The samples were then analyzed by LC/MS/MS to determine how much of the compound remained at each time point. The elimination rate constant and half-life were calculated from the data as follows: Elimination rate constant (k)=−slope; Half-life (T1/2)=0.693/k.
The in vitro intrinsic clearance, Clint, was calculated from the T1/2 as follows: Clint=(0.693/T1/2)×(1/(microsomal protein concentration (0.5 mg/mL)))×Physiological Scaling Factor.
On the technique in general: Microsomes from liver hold many membrane-bound enzymes, among them those of drug oxidation.

For a further data set, the system named is HCC1806 Cells. Nature of the data set: HCC1806 Cell Viability Assay (CellTiter-Glo). Conditions: Homo sapiens, 144 h, 6 days incubation, read-out: HCC1806 CTG IC50. It counts as cell-based. The procedure:
as §1, with “HCC1806 Cells” for “OVCAR3 Cells”, “Cat #CRL-2335)” for “Cat #HTB-161)”, “of 500” for “of 2000”, “media (RPMI1640+10% FBS).” for “media (RPMI1640+20% FBS+0.01 mg/mL human insulin).”, “blank wells” for “blank well”, “at 37° C.,” for “at 37 C,”

A further data set is described as follows: Mouse PK Assay. It counts as in vivo. The following applies: plasma, male BALB/c mouse; for MRT: IV; for half-life: single oral dose 5 mg/kg, read-out: PO T1/2 (converted).
The target in another data set is T1, P450 2C9 (Homo sapiens, UniProt P11712).
T1 construct: incubation with known industry-accepted CYP450 substrates, test articles and microsomes (HLM); from tissue; host or cells: liver microsomes (HLM)
T1 sequence (P11712 whole entry): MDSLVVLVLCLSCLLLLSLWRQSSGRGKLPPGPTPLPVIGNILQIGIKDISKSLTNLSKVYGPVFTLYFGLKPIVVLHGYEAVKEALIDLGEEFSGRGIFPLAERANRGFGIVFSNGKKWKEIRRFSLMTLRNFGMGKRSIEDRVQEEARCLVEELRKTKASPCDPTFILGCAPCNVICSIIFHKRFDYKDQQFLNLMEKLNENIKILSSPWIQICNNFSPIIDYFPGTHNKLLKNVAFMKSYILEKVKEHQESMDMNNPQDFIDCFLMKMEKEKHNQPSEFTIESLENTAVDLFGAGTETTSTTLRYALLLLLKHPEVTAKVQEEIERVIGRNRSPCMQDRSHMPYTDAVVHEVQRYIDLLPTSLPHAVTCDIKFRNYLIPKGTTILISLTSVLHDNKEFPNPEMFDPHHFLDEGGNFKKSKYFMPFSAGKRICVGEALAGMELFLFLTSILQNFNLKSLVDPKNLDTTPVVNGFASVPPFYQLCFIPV
Nature of the data set: In Vitro Cytochrome P450 Inhibition Study. Conditions: human liver microsomes (HLM), test compound 0.137 μM to 10 μM, 10 min at 37 °C. The format is in vitro ADME. The procedure: CYP inhibition was evaluated by monitoring corresponding metabolite decrease after incubation with known industry-accepted CYP450 substrates, test articles and microsomes (HLM).
Eight reaction wells with 30 μL of a solution containing 100 mM potassium phosphate, pH 7.4 and 1:3 serial dilutions of the test compound were prepared along with eight wells of 1:3 serial dilutions of Sulfaphenazole (a positive control inhibitor). The assay plates were pre-warmed after 15 μL of probe substrate was added into appropriate wells. Then the reactions were initiated by adding 15 μL of a pre-warmed 8 mM NADPH solution resulting in a final NADPH concentration of 2 mM. The concentrations of test compound ranged from 0.137 μM to 10 μM. A zero time-point control reaction was prepared by adding 135 μL acetonitrile (ACN) containing tolbutamide (200 ng/mL) as internal standard (IS) to 30 μL. of the reaction solution to inactivate the enzymes before adding the probe substrate. A control reaction with no inhibitor was also prepared. After a suitable incubation at 37° C., 10 min, the reactions were terminated by the addition of 135 μL ACN containing IS. The reactions were prepared and analyzed for the metabolite forms of the probe substrate using LC-MS/MS.

As for `O=C1c2ccc(NS(=O)(=O)CCO)cc2C2(CCC3(CC3)CC2)CN1c1ccnc(NC2CCC(F)(F)C2)n1` (single isomer, unassigned) [Compound 71], in the data set with OVCAR3 Cells, the IC50 (commonly the concentration that gives 50% inhibition) is less than 200 nM. Further, in data set [1], the fraction unbound (commonly the share of the substance not bound to proteins or other matrix) at 6 hr, 1 μM amounted to 0.0014.
`N#Cc1ccc(N2CC3(CCC4(CC4)CC3)c3cc(NS(=O)(=O)CCO)ccc3C2=O)nc1NC1CCC(F)(F)C1` (single isomer, unassigned) [Compound 110]: in data set [2], the half-life at 1 μM was 2.52 h and the CLint scaled (as a rule, the rate of metabolic loss divided by the concentration) at 1 μM was less than 12.4 mL/min/kg.
As for `O=C1c2ccc(NS(=O)(=O)CCO)cc2C2(CCC3(CC3)CC2)CN1c1ccnc(N2CCC(F)(F)CC2)n1` [Compound 1], the IC50 with OVCAR3 Cells was less than 200 nM. The IC50 with HCC1806 Cells is less than 200 nM. In the data set “Mouse PK Assay”, the MRT (as a rule, a mean duration of stay, worked out from the concentration-time curve) came to 7.5 h and the half-life was 4.8 h.
As for `O=C(Nc1ccc2c(c1)ncn2CC(F)(F)F)c1ccc(NS(=O)(=O)CCO)cc1N1CCC2(CC1)CC2` [Compound 3], the IC50 in the data set on OVCAR3 Cells and in the data set with HCC1806 Cells was greater than 2000 nM each time.
`Cc1cc(NC(=O)c2ccc(NS(=O)(=O)CCO)cc2C2=CCC3(CC2)CC3)nc(N2CCC(F)(F)CC2)n1` [Compound 6]: the IC50 in the data set on OVCAR3 Cells and in the data set with HCC1806 Cells was less than 200 nM throughout.
Take `CN1CCOc2ccc(NC(=O)c3ccc(NS(=O)(=O)CCO)cc3N3CCC4(CC3)CC4)nc21` [Compound 7]: in the data set with HCC1806 Cells, the IC50 was greater than 2000 nM.
As for `O=C1c2ccc(NS(=O)(=O)CCO)cc2C2(CCC3(CC3)CC2)CN1c1ccnc(N2CCC(F)(F)C2)n1` [Compound 12], the half-maximal inhibitory concentration (IC50) in the data set with OVCAR3 Cells and with HCC1806 Cells was 200 to 2000 nM each time.
On to `O=C1c2ccc(NS(=O)(=O)CCO)cc2C2(CCC3(CC3)CC2)CN1c1ccnc(NC2CC(F)(F)C2)n1` [Compound 21], for which the IC50 in the data set on OVCAR3 Cells was less than 200 nM. In addition, the fraction unbound at 6 hr, 1 μM in data set [1] came to 0.002.
Turning to `O=C1c2ccc(NS(=O)(=O)CCO)cc2C2(CCC3(CC3)CC2)CN1c1cccc(N2CCC3CC32)n1` (stereo not shown) [Compound 26], the IC50 in the data set on OVCAR3 Cells and in the data set with HCC1806 Cells was 200 to 2000 nM throughout.
Consider `O=C1c2ccc(NS(=O)(=O)CCO)cc2C2(CCC3(CC3)CC2)CN1c1ccc2c(n1)N1CCC(F)(F)CC1CO2` (stereo not shown) [Compound 31], for which the 50% inhibitory concentration (IC50) with OVCAR3 Cells and with HCC1806 Cells was 200 to 2000 nM throughout.
As to `CN(c1cccc(N2CC3(CCC4(CC4)CC3)c3cc(NS(=O)(=O)CCO)ccc3C2=O)n1)C1CC(F)(F)C1` [Compound 34], the half-maximal inhibitory concentration (IC50) with OVCAR3 Cells and in the data set with HCC1806 Cells was less than 200 nM in each case.
`N#Cc1ccc(N2CC3(CCC4(CC4)CC3)c3cc(NS(=O)(=O)CCO)ccc3C2=O)nc1NC1CC(F)(F)C1` [Compound 56]: the IC50 in the data set on OVCAR3 Cells is less than 200 nM. In data set [2], this compound gave a half-life at 1 μM of 2.37 h and an intrinsic clearance (CLint scaled) at 1 μM of less than 12.4 mL/min/kg.
With `N#Cc1ccc(N2CC3(CCC4(CC4)CC3)c3cc(NS(=O)(=O)CCO)c(F)cc3C2=O)nc1N1CCC(F)(F)CC1` [Compound 75], in “Mouse PK Assay”, the MRT was found to be 8 h and the half-life was 6.3 h.
For the compound `N#Cc1ccc(N2CC3(CCC4(CC4)CC3)c3cc(NS(=O)(=O)CCO)ncc3C2=O)nc1N1CCC(F)(F)CC1` [Compound 80], the IC50 with OVCAR3 Cells is less than 200 nM; against P450 2C9, greater than 10000 nM.
On to `CC1(C)CCC2(CC1)CN(c1ccc(C#N)c(N3CCC(F)(F)CC3)n1)C(=O)c1ccc(NS(=O)(=O)CCO)cc12` [Compound 90], for which the figures for the 50% inhibitory concentration (IC50) with OVCAR3 Cells and against P450 2C9 were less than 200 nM and greater than 10000 nM, respectively.
Turning to `CC1(C)CCC2(CC1)CN(c1ccc(C#N)c(NC3CC(F)(F)C3)n1)C(=O)c1ccc(NS(=O)(=O)CCO)cc12` [Compound 95], in the data set with OVCAR3 Cells, the IC50 was less than 200 nM. Besides, in data set [2], the half-life at 1 μM stood at 1.98 h and the intrinsic metabolic clearance (CLint scaled) at 1 μM turned out to be 14.6 mL/min/kg.
With `N#Cc1ccc(N2CC3(CCC4(CCC4)CC3)c3cc(NS(=O)(=O)CCO)ccc3C2=O)nc1N1CCC(F)(F)CC1` [Compound 116], the half-inhibitory concentration (IC50) in the data set on OVCAR3 Cells is less than 200 nM. Besides, in the data set “Mouse PK Assay”, the mean residence time MRT was determined as 6.9 h and the half-life was 4.6 h. On P450 2C9, this compound gave an IC50 of 6700 nM.
As to `CCS(=O)(=O)Nc1ccc2c(c1)C1(CCC3(CC3)CC1)CN(c1ccc(C#N)c(S(=O)(=O)NC(C)(C)C)c1)C2=O` [Compound 120], the IC50 in the data set on OVCAR3 Cells was less than 200 nM. Also, in data set [1], the free fraction (fraction unbound) at 6 hr, 1 μM stood at 0.0122.
Turning to `COCCOc1ccc(N2CC3(CCC4(CC4)CC3)c3cc(NS(=O)(=O)CCO)ccc3C2=O)nc1N1CCC(F)(F)CC1` [Compound 136], the IC50 with OVCAR3 Cells is less than 200 nM; at P450 2C9, greater than 10000 nM.
For `CN1CCN(c2ccc(N3CC4(CCC5(CC5)CC4)c4cc(NS(=O)(=O)CCO)ccc4C3=O)nc2N2CCC(F)(F)CC2)C(=O)C1` [Compound 178], in the data set on OVCAR3 Cells, the IC50 was less than 200 nM.
Consider `CN1CCC(c2ccc(N3CC4(CCC5(CC5)CC4)c4cc(NS(=O)(=O)CCO)ccc4C3=O)nc2N2CCC(F)(F)CC2)CC1` [Compound 179], for which the 50% inhibitory concentration (IC50) in the data set with OVCAR3 Cells is 200 to 2000 nM.
As to `O=C1c2ccc(NS(=O)(=O)CCO)cc2C2(CCC3(CC3)CC2)CN1c1ccc(-c2cc[nH]n2)c(N2CCC(F)(F)CC2)n1` [Compound 180], in the data set on OVCAR3 Cells, the concentration for half-maximal inhibition (IC50) was less than 200 nM.
